According to patent US9334500B2, “Methods and pharmaceutical compositions for treating cancer” (Agency for Science, Technology and Research, priority 2011, dated 2016):
Where two headings read alike, the source gives them in different places.

Legend:
MB231-LN xenograft tumor = assay: MB231-LN subcutaneous xenograft tumor growth with Erlotinib treatment; format: in vivo, mice; conditions: 100 mg/kg oral gavage, 6 days per week for 4 weeks
Protocol: All raw measurements were presented as mean±SEM (standard error of the mean). Comparisons of curves between primary tumor and BLI lung metastasis growth were performed using repeated Anova analysis. Survival analysis was performed using Kaplan-Meier estimator and log-rank test. The relative hazard ratio between different groups was calculated based on Cox-proportional hazards model and presented as HR (95% CI). Other comparisons were performed using unpaired two-sided Student's t-test without equal variance assumption or nonparametric Mann-Whitney test. All statistic calculations were performed with Excel, Stata 7 and EPI info. […] For in vivo Erlotinib treatment, both control cell and UBASH3B KD MB231-LN cells were subcutaneously injected into 6-8 week female nude mice at 5×10^6 cells, followed by treatment with vehicle or Erlotinib (LC lab, #E-4007) at 100 mg/kg by oral gavage with 6 consecutive days per week for 4 weeks after average tumor volume reached around 150 mm^3. Tumors were measured by calliper three times per week and tumors volume was calculated with formula: V=W*W*L/2.

MB231-LN = assay: Methylcellulose assay (anchorage-independent growth); conditions: for EC50: Homo sapiens
[1] = test system: SUM159PT-R (Paclitaxel-resistant SUM159PT) cells; assay: Cell viability assay after Paclitaxel treatment; format: cell-based; conditions: Paclitaxel-resistant SUM159PT with UBASH3B knockdown; 72 hrs
Protocol: Cell viability assay was performed and EC50 of Paclitaxel in each sample was determined and shown at the top. UBASH3B knockdown efficiency was assessed by Western blotting, shown at the bottom. *P<0.05, paired two-tailed t-test. Error bars, mean+SEM.
Cell viability was determined using CellTiter-Glo Luminescent Cell Viability Assay (Promega) as instructed by manufacturer's manual. 1000 cells were plated in 96-well plate and the readings were taken for 5 consecutive days using CellTiter-Glo kit (Promega).

UBASH3B expression = assay: Real-time PCR and Western blot analysis of UBASH3B expression; format: cell-based, human
Protocol: (§1) All siRNA were designed by 1st Base Singapore except for ETS1 siRNA#1 which was referenced from a previously published paper^7. Oligo miRNA mimics and antagomirs were purchased from Dharmacon, Inc. (Chicago, Ill., USA). For transfection, 30 nM siRNAs, 15 nM miRNA mimics or 100 nM iRNA antagomirs were used to transfect cells. 48 h after transfection cell pellets were collected and subjected indicated assays.
Total RNA including small RNAs was isolated using RNeasy Mini Kit (Qiagen). The microarray hybridization was performed using the Illumina HumanHT-12 V4.0 expression beadchip, and data analysis was performed using GeneSpring software from Agilent Technologies. Microarray data reported herein have been deposited at the NCBI Gene Expression Omnibus with the accession number GSE36693. Reverse transcription and quantitative PCR assays were performed using High Capacity cDNA Archive kit and KAPA SyBr Fast qPCR kit (KAPA Biosystems), respectively. TaqMan MicroRNA assays were used to quantify the level of mature miRNAs as previously described^8. Briefly, 10 ng of total RNA was reverse-transcribed and product was subjected to TaqMan stemloop miRNA assay (Applied Biosystems). RNU6B was used to normalize the data. For quantification of mRNA levels, 18S level was used as internal control. All reactions were analyzed in an Applied Biosystems 7500 Fast. Real-Time PCR system in 96-well plate format. Real-time primer sequences are listed in Supplementary Table 2.
(§2) Western Blotting was performed as described previously^9. Anti-UBASH3B (ab34781) was purchased from Abcam. Anti-EGFR (cs2232), anti-CBL (cs2747) and anti-Pan phosphor-Tyr (cs9411) was purchased from Cell Signaling. Anti-ETS1 (sc350), anti-ZEB1 (sc-2538.8), and anti-ZEB2 (sc-48789) were obtained from Santa Cruz. Anti-Myc and anti-Actin were purchased from Roche Applied Science and Sigma-Aldrich, respectively.

UBASH3B 3'-UTR = assay: Luciferase reporter assay with UBASH3B 3'-UTR reporters; format: cell-based; conditions: wild type vs miR-200a binding site mutated reporters; 40 nM mimics
Protocol: HCT116 cells were plated at a density of 5×10^4 cells per well in 24-well plate format and transfected with 10 ng of pMIR REPORT containing the respective miRNA responsive regions of UBASH3B 3′ UTR sequence, 40 nM of miRNA mimics and 5 ng of pRL null internal control simultaneously on the next day. At 48 h after transfection, the luciferase activities were measured using the Dual Luciferase system (Promega). All luciferase readings were first normalized to corresponding internal control pRL null Renilla luciferase readings. The resulting relative activities were further normalized to appropriate controls.

ZEB1 and ZEB2 = assay: Western blot of ZEB1 and ZEB2 expression; format: cell-based, human; conditions: MB231 and BT549 overexpressing mimics
Protocol: as §1, §2

## C#Cc1cccc(Nc2ncnc3cc(OCCOC)c(OCCOC)cc23)c1 [Erlotinib]
MB231-LN xenograft tumor; UBASH3B depleted tumors
  xenograft tumor growth response to Erlotinib: irresponsive
MB231-LN xenograft tumor; control tumors
  xenograft tumor growth response to Erlotinib: marked growth inhibition
MB231-LN; read-out: EC50 of Erlotinib, MB231-LN cells with UBASH3B depletion
  EC50: 3850 nM
MB231-LN; read-out: EC50 of Erlotinib, MB231-LN control cells, without UBASH3B depletion
  EC50: 450 nM
MB231-LN; UBASH3B-depleted MB231 with ectopic overexpression of EGFR
  sensitivity of cells to Erlotinib treatment: restored the sensitivity

## CC(=O)O[C@H]1C(=O)[C@@]2(C)[C@H]([C@H](OC(=O)c3ccccc3)[C@]3(O)C[C@H](OC(=O)[C@H](O)[C@@H](NC(=O)c4ccccc4)c4ccccc4)C(C)=C1C3(C)C)[C@]1(OC(C)=O)CO[C@@H]1C[C@@H]2O [Paclitaxel]
[1]
  sensitivity to Paclitaxel treatment: increased sensitivity
MB231-LN; read-out: EC50 of Paclitaxel, cells with UBASH3B depletion
  EC50: 0.61 nM
MB231-LN; read-out: EC50 of Paclitaxel, control cells, without UBASH3B depletion
  EC50: 4.53 nM

## N#CC(=C(/N)Sc1ccccc1N)/C(C#N)=C(\N)Sc1ccccc1N [U0126]
UBASH3B expression; MB231 cells, 5 μM, real-time PCR, indicated time points
  UBASH3B expression: decrease the UBASH3B expression in a time-dependent manner

## miR-200a: oligo miRNA mimic purchased from Dharmacon (UAACACUGUCUGGUAACGAUGU; listed as RNA, chemistry not given here)
UBASH3B expression; BT549 cells, miR-200a overexpression combined with ETS1 knockdown
  UBASH3B expression: more pronounced downregulation
UBASH3B expression; enforced expression of mimics in invasive breast and prostate cancer cells
  UBASH3B mRNA and protein expression: able to reduce
UBASH3B 3'-UTR
  targeting and inhibition of UBASH3B 3'-UTR reporter: direct and specific targeting and inhibition
ZEB1 and ZEB2
  expression of ZEB1 and ZEB2: could repress
